Holding throughout (assay type): cell-based
In one experiment the target is T1, CDK4 (Homo sapiens, UniProt P11802).
T1 construct: endogenous in cells; host or cells: Calu-1
As to the kind of experiment: CDK4 percentage degradation in Calu-1 cells (immunoblotting). The conditions noted are these: Calu-1 cells, 200 nM, 16 hours; read-out: CDK4 Degradation (200 nM). Summed up: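 CDK4 degradation was measured by immunoblotting. Cells were washed in cold PBS and lysed in RIPA buffer with inhibitors for 30 min at 4° C., then spun at 13,000 rpm to clear. After BCA protein determination, lysates were heated at 99° C. for 5 min in Laemmli buffer, resolved on SDS-PAGE, imaged on a ChemiDoc MP with ECL substrate, and band intensities quantified.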
On the technique in general: In western blotting, separated proteins are transferred to a membrane and probed.

For the next experiment, the system named is Calu-1. As to the kind of experiment: Cell viability assay, Calu-1. The conditions noted are these: Homo sapiens, 72 h; Calu-1, NSCLC, 3 days; read-out: Cellular Anti-proliferation activity (IC50). A digest of the protocol:
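Cells were exposed to a serial dilution of test compound for 3-6 days, or 3 days with a 9-point series for CDK4/6 inhibitors and heterobifunctional compounds. Viability was read by luminescence (CellTiter-Lumi). IC50 came from nonlinear least-squares regression of dose-response curves, reported as mean±SD.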

The subject of another experiment is MDA-MB-453. As to the kind of experiment: Cell viability assay, MDA-MB-453. The conditions noted are these: Homo sapiens, 72 h; MDA-MB-453, TNBC, 3 days; read-out: Cellular Anti-proliferation activity (IC50). How it is done: (§1) Cells were treated with CDK4/6 inhibitors palbociclib, ribociclib, or abemaciclib, or heterobifunctional compounds CPD-002 or CPD-031 following a 9-point serial dilution for 3 days.
(§2) Cells were seeded at a density of 2,000-5,000 cells per well in 96-well assay plates and treated with test compounds following a 10-point serial dilution for 3-6 days. Cell viability was determined using the CellTiter-Lumi assay kit according to the manufacturer's instructions. The dose-response curves were determined and IC50 values were calculated using the GraphPad Prism software following a nonlinear regression (least squares fit) method. Data presented was mean±standard deviation (SD) unless otherwise indicated.

Another experiment has as its system BT-549. The experiment can be described thus: Cell viability assay, BT-549. The conditions noted are these: Homo sapiens, 72 h; BT-549, TNBC, 3 days; read-out: Cellular Anti-proliferation activity (IC50). The protocol:
as §1, §2

Experiment [1] deals with Calu-1, NCI-H522, BT-549, Hs578T, MIA PaCa-2 or other cells. As to the kind of experiment: Inhibition of cancer cell growth, 9-point serial dilution in 96-well plates. The conditions noted are these: 3 d treatment.
Another experiment deals with NCI-H522. The experiment can be described thus: Cell viability assay, NCI-H522. The conditions noted are these: Homo sapiens, 72 h; NCI-H522, NSCLC, 3 days; read-out: Cellular Anti-proliferation activity (IC50). How it is done: as §1, §2
Experiment [2] concerns cyclin D1, cyclin D2, cyclin D3, CDK4 and CDK6. The experiment can be described thus: Immunoblotting of cyclin D and CDK4/6 protein levels in Calu-1 cells. The conditions noted are these: for cyclin D degradation after pretreatment with MG-132, MLN4924 or TAK-243: 2 hours pre-treatment, then 500 nM CPD-002, 500 nM CPD-004 or 100 nM CPD-031 for 4 h or 2 h; for time course of cyclin D1, cyclin D2 and cyclin D3 protein level reduction: CPD-002 at 500 nM, CPD-031 at 100 nM; for cyclin D1, cyclin D2, cyclin D3, CDK4 and CDK6 protein levels: indicated concentrations, 16 hours.

A further experiment deals with Cal-62. As to the kind of experiment: Cell viability assay, Cal-62. The conditions noted are these: Homo sapiens, 72 h; Cal-62, TC, 3 days; read-out: Cellular Anti-proliferation activity (IC50). The protocol:
as §1, §2

The subject of the next experiment is OVCAR3. As to the kind of experiment: Cell viability assay, OVCAR3. The conditions noted are these: Homo sapiens, OVCAR-3, 72 h; OVCAR3, OC, 3 days; read-out: Cellular Anti-proliferation activity (IC50). How it is done: as §1, §2
A further experiment concerns MDA-MB-157. As to the kind of experiment: Cell viability assay, MDA-MB-157. The conditions noted are these: Homo sapiens, 72 h; MDA-MB-157, TNBC, 3 days; read-out: Cellular Anti-proliferation activity (IC50). How it is done:
as §1, §2

The subject of experiment [3] is cyclin D1, cyclin D2, cyclin D3. As to the kind of experiment: Immunoblot of cyclin D protein levels in Calu-1 (and BT-549) cells. The conditions noted are these: for cyclin D downregulation effect after pre-treatment with MG-132, MLN4924 or TAK-243: proteasome, cullin E3 ligase or UAE inhibitor pre-treatment; for DC50 / reduction of cyclin D1, cyclin D2, and cyclin D3 protein levels: immunoblot, dose range; for DC50: 16 hours treatment; for reduction of cyclin D1, cyclin D2, and cyclin D3 protein levels: Calu-1 / BT-549 cells, 16 hours. How it is done:
Specific exemplary heterobifunctional compounds were characterized in Calu-1, BT-549 and other cells. Cells that express cyclin D1-3 and CDK4/6 proteins were treated with heterobifunctional compounds disclosed herein at indicated concentrations for 16 hours. Cells were collected, lysed and subject to immunoblotting using an antibody specific to cyclin D1, cyclin D2, cyclin D3, CDK4, CDK6 or phosphorylated R^b proteins. Tubulin or GAPDH was used as the loading control. DMSO treatment was used as the negative control.
In a time-course study, Calu-1 cells were treated with 500 nM CPD-002, or 100 nM CPD-031 for indicated period of time prior to immunoblotting (FIG. 4A-4B).
The heterobifunctional compound-mediated degradation was dependent on the ubiquitin-proteasome system and cullin E3 ligase. […] In addition, DDB1 E3 ligase was critical for the degrader-induced cyclin D downregulation. Depletion of DDB1 using CRISPR-Cas9 technology attenuated the cyclin D degradation induced by CPD-031 (FIG. 5C).
To verify that heterobifunctional compound-mediated degradation is dependent on the binding to CDK4-cyclin D complex, we designed three negative control compounds, CPD-042, CPD-049 and CPD-380, which are derived from CPD-002 CPD-031 and CPD-343, respectively. These three control compounds bear the same DDB1 ligand and linker as their corresponding active heterobifunctional compounds but with modified warheads to impair the binding of the control compounds to CDK4. […] However, the binding to CDK4 is not sufficient for cyclin D degradation. Two cereblon (CRBN)-recruiting reference heterobifunctional compounds, CP-10 (Su, J Med Chem, 2019; CAS No.: 2366268-80-4) and BSJ-03-123 (Brand, Cell Chem Biol, 2019; CAS No.: 2361493-16-3) were analyzed in Calu-1 cells.

Where [4] appears, read: time-course, Calu-1 cells, 500 nM CPD-002.

Each structure is given as a SMILES string. pIC50: −log10 of the molar value.

T1 sequence (P11802 2-303 limits assumed): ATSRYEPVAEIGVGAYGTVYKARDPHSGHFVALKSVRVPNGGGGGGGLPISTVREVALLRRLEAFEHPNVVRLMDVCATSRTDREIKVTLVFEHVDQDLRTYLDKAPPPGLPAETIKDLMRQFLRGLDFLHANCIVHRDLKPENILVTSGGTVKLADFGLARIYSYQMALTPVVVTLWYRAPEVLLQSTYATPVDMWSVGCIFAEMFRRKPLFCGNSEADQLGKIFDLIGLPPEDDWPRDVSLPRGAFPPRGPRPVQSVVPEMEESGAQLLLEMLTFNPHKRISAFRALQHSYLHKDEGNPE
T1 sequence (P24385 whole entry partner): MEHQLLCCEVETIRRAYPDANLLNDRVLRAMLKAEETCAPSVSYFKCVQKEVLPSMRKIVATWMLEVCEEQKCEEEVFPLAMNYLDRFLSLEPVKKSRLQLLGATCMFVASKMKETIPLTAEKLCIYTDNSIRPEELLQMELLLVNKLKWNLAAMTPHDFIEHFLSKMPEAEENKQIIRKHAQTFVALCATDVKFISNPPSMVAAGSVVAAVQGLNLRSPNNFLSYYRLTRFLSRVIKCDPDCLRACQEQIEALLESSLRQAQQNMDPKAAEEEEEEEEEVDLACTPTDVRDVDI
T1 sequence (Q16531 2-1140 limits assumed, further chain): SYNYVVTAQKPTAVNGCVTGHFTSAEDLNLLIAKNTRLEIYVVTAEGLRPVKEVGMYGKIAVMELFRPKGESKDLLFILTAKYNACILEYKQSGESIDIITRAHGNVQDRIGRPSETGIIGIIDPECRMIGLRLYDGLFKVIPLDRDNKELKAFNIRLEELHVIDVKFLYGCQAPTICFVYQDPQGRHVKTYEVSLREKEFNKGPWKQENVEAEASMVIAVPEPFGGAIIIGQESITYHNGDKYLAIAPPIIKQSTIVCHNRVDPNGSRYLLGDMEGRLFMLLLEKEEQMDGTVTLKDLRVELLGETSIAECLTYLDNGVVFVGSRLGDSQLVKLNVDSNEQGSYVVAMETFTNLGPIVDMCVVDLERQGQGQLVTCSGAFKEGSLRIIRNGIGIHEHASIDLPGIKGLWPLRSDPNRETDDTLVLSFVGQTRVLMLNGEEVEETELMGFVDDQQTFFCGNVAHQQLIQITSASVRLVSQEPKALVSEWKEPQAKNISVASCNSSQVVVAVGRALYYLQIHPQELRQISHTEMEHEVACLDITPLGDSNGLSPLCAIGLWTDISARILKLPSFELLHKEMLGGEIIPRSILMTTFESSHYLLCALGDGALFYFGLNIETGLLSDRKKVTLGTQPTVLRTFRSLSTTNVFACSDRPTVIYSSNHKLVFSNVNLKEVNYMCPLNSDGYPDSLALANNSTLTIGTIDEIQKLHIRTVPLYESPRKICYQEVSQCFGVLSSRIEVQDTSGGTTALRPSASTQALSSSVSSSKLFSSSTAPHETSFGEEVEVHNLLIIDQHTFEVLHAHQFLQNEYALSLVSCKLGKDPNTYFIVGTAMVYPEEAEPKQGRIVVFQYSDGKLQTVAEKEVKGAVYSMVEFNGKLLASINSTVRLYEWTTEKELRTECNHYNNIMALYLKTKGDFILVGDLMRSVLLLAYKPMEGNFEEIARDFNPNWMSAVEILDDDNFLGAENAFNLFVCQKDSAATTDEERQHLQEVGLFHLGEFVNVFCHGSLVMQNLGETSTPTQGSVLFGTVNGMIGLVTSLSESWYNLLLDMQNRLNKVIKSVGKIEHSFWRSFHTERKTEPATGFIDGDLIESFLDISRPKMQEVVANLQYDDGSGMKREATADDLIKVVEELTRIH

For `CC(=O)c1c(C)c2cnc(Nc3ccc(N4CCN(CC(=O)NCCOCCOCCOCCOCCOCCNc5ccc(C(=O)Nc6ncc(C)s6)c(C)c5)CC4)cn3)nc2n(C2CCCC2)c1=O` [CPD-002, 4-((1-(4-(6-((6-Acetyl-8-cyclopentyl-5-methyl-7-oxo-7,8-dihydropyrido[2,3-d]pyrimidin-2-yl)amino)pyridin-3-yl)piperazin-1-yl)-2-oxo-6,9,12,15,18-pentaoxa-3-azaicosan-20-yl)amino)-2-methyl-N-(5-methylthiazol-2-yl)benzamide], the inhibition at 0.2 µM on CDK4 was 50 to 80%. In addition, the pIC50 with Calu-1 is 7.17; with MDA-MB-453 it was 6.13; with BT-549, 6.16; with NCI-H522, 6.20; with Cal-62, 7.30; in the experiment on OVCAR3 it was 6.97. Besides, the pIC50 with MDA-MB-157 is 6.82. Further, in [1], the “potency at inhibition of multiple cancer cell lines versus CDK4/6 inhibitors” value was “significantly more potent than palbociclib, ribociclib, and abemaciclib”. For the same compound, in experiment [2], the “cyclin D degradation after pretreatment with MG-132, MLN4924 or TAK-243” value was “diminished the cyclin D degradation effect”. The “time course of cyclin D1, cyclin D2 and cyclin D3 protein level reduction” value in [2] is given as “significantly reduced as early as one hour following treatment”. Moreover, the “cyclin D1, cyclin D2, cyclin D3, CDK4 and CDK6 protein levels” value in [2] was “reduced cyclin D1, cyclin D2, cyclin D3, CDK4 and CDK6 protein levels in a concentration-dependent manner”. Besides, in [3] (Calu-1 cells), the “cyclin D downregulation effect after pre-treatment with MG-132, MLN4924 or TAK-243” value is “totally diminished”. The DC50 in experiment [3] is < 0.05 µM. Also, the “reduction of cyclin D1, cyclin D2, and cyclin D3 protein levels” value in experiment [3] is “particularly effective”. The “time to complete degradation of cyclin D proteins” value in [3] (setting [4]) was ≤ 2 h. Moreover, the “time to significant degradation of cyclin D proteins” value in [3] (setting [4]) was ≤ 0.5 h.

Consider `CC(=O)c1c(C)c2cnc(Nc3ccc(N4CCN(CC(=O)NCCOCCOCCOCCOCCOCCNc5ccc(C(=O)Nc6nc(C)c(C)s6)c(C)c5)CC4)cn3)nc2n(C2CCCC2)c1=O` [CPD-031, 4-((1-(4-(6-((6-Acetyl-8-cyclopentyl-5-methyl-7-oxo-7,8-dihydropyrido[2,3-d]pyrimidin-2-yl)amino)pyridin-3-yl)piperazin-1-yl)-2-oxo-6,9,12,15,18-pentaoxa-3-azaicosan-20-yl)amino)-N-(4,5-dimethylthiazol-2-yl)-2-methylbenzamide], for which the inhibition at 0.2 µM at CDK4 is > 80%. Also, the pIC50 with Calu-1 was 8.05; in the experiment on MDA-MB-453 it was 6.52; with BT-549, 6.96; in the experiment with NCI-H522 it was 6.81; with Cal-62, 8.30; in the experiment with OVCAR3, 7.41. Further, in the experiment with MDA-MB-157, the pIC50 was 7.55. Further, in experiment [1], the “potency at inhibition of multiple cancer cell lines versus CDK4/6 inhibitors” value is “significantly more potent than palbociclib, ribociclib, and abemaciclib”. The “cyclin D degradation after pretreatment with MG-132, MLN4924 or TAK-243” value in [2] is reported as “diminished the cyclin D degradation effect”. For the same compound, the “time course of cyclin D1, cyclin D2 and cyclin D3 protein level reduction” value in [2] is “significantly reduced as early as one hour following treatment”. Moreover, the “cyclin D1, cyclin D2, cyclin D3, CDK4 and CDK6 protein levels” value in experiment [2] is “downregulated the protein levels of cyclin D1, cyclin D2, cyclin D3, CDK4, CDK6, and downstream phosphorylated Rb in a concentration-dependent manner”. Besides, the “cyclin D3 versus cyclin D1 and D2 degradation, time-course” value in experiment [3] (Calu-1 cells, 100 nM CPD-031) was “slower cyclin D3 degradation compared to cyclin D1 and D2 degradation”. The “cyclin D downregulation effect after pre-treatment with MG-132, MLN4924 or TAK-243” value in experiment [3] (Calu-1 cells) is “totally diminished”. For the same compound, the DC50 in experiment [3] was < 0.02 µM. Besides, the “reduction of cyclin D1, cyclin D2, and cyclin D3 protein levels” value in experiment [3] is listed as “particularly effective”.

The values are drawn from patent US20250235543A1, “MODIFIED PROTEINS AND PROTEIN DEGRADERS” (Cullgen (Shanghai), Inc., priority 2021, published 2025).
